Measurements: patent US12043600B2, “Microbiocidal compounds” (SYNGENTA CROP PROTECTION AG, priority 2018, dated 2024)
Like-named read-outs stand apart in the source and are kept apart here.

Assays:
Plasmopara viticola = assay: whole plant or invertebrate; type: in vivo; settings: foliar, read-out: control of Plasmopara viticola
[1] = system: Phaeosphaeria nodorum (Septoria nodorum); assay: Phaeosphaeria nodorum (Septoria nodorum)/Wheat/Leaf Disc Preventative (Glume Blotch); type: in vivo; settings: Parastagonospora nodorum, foliar, wheat leaf disc preventative, compared to untreated control
Summary of the method: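 Wheat cv. Kanzler leaf discs on agar were sprayed with formulated compound diluted in water and inoculated with P. nodorum spores 2 days later. Discs kept at 20 °C, 75% rh, 12 h light/dark; percent disease control versus untreated scored 5–7 days after application.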

Pyrenophora teres = assay: Pyrenophora teres/Barley/Leaf Disc Preventative (Net Blotch); type: in vivo; settings: foliar
Excerpt: Barley leaf segments cv. Hasso are placed on agar in a multiwell plate (24-well format) and sprayed with the formulated test compound diluted in water. The leaf segments are inoculated with a spore suspension of the fungus 2 days after application. […] The data are presented as the percentage of disease control of each compound for the biological tests against G. lagenarium (Example B3), P. recondita preventative (Example B13), P. teres (Example B15) and M. graminicola (Example B19) as described above. The testing rates of each biological test is specifically described in table C1 below.

[2] = system: Puccinia recondita f. sp. tritici; assay: Puccinia recondita f. sp. tritici/Wheat/Leaf Disc Preventative (Brown Rust); type: in vivo; settings: foliar
[3] = system: Mycosphaerella graminicola (Septoria tritici); assay: Mycosphaerella graminicola (Septoria tritici)/Liquid Culture (Septoria Blotch); type: cell-based; settings: Zymoseptoria tritici; for inhibition of growth at 20 ppm: liquid culture, compared to untreated control; for inhibition of growth at 6 ppm: M. graminicola (B19), read-out: Disease control (%)
Summary of the method: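 Conidia from cryogenic storage mixed into potato dextrose broth and added to microtiter wells already holding DMSO solutions of test compound. Activity expressed as percentage disease control.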

Phakopsora pachyrhizi = assay: Phakopsora pachyrhizi/Soybean/Preventative (Soybean Rust); type: in vivo; settings: foliar, 288 h, 200 ppm, soybean leaf disc preventative, compared to untreated control, read-out: control of Phakopsora pachyrhizi
[4] = system: Magnaporthe grisea (Pyricularia oryzae); assay: whole plant or invertebrate; type: in vivo; settings: foliar, read-out: control of Magnaporthe grisea
[5] = system: Monographella nivalis (Microdochium nivale); assay: Monographella nivalis (Microdochium nivale)/Liquid Culture (Foot Rot Cereals); type: cell-based; settings: liquid culture, compared to untreated control
Summary of the method: (§1)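 Test compound dissolved in DMSO is dispensed first; nutrient broth (potato dextrose) carrying conidia thawed from cryogenic storage follows.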

[6] = system: Mycosphaerella arachidis (Cercospora arachidicola); assay: Mycosphaerella arachidis (Cercospora arachidicola)/Liquid Culture (Early Leaf Spot); type: cell-based; settings: liquid culture, compared to untreated control
Summary of the method: as §1

[7] = system: Glomerella lagenarium (Colletotrichum lagenarium); assay: Glomerella lagenarium (Colletotrichum lagenarium)/Liquid Culture (Anthracnose); type: cell-based; settings: Colletotrichum orbiculare, liquid culture, compared to untreated control
Phytophthora infestans = assay: whole plant or invertebrate; type: in vivo; settings: in Solanum lycopersicum, foliar, read-out: control of Phytophthora infestans
[8] = system: Blumeria graminis f. sp. tritici (Erysiphe graminis f. sp. tritici); assay: Blumeria graminis f. sp. tritici/Wheat/Leaf Disc Preventative (Powdery Mildew on Wheat); type: in vivo; settings: foliar, wheat leaf disc preventative, compared to untreated control
Summary of the method: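 Wheat cv. Kanzler leaf segments on agar sprayed with formulated compound, inoculated with powdery mildew 1 day later and held at 20° C, 60% rh (24 h dark, then 12 h light/12 h dark). Percent disease control versus untreated scored 6-8 days after application.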

[9] = system: Puccinia recondita f. sp. tritici; assay: Puccinia recondita f. sp. tritici/Wheat/Leaf Disc Curative (Brown Rust); type: in vivo; settings: foliar, wheat leaf disc curative, compared to untreated control
Experimental: Wheat leaf segments cv. Kanzler are placed on agar in multiwell plates (24-well format). The leaf segments are inoculated with a spore suspension of the fungus. Plates are stored in darkness at 19° C. and 75% rh. The formulated test compound diluted in water is applied 1 day after inoculation. The leaf segments are incubated at 19° C. and 75% rh under a light regime of 12 h light/12 h darkness in a climate cabinet and the activity of a compound is assessed as percent disease control compared to untreated when an appropriate level of disease damage appears in untreated check leaf segments (6-8 days after application).

[10] = system: Botryotinia fuckeliana (Botrytis cinerea); assay: Botryotinia fuckeliana (Botrytis cinerea)/Liquid Culture (Gray Mould); type: cell-based; settings: liquid culture, compared to untreated control
Experimental: Conidia of the fungus from cryogenic storage are directly mixed into nutrient broth (Vogels broth). After placing a (DMSO) solution of test compound into a microtiter plate (96-well format), the nutrient broth containing the fungal spores is added.

[11] = barley leaf disc preventative, compared to untreated control, read-out: control of Pyrenophora teres
[12] = wheat leaf disc preventative, compared to untreated control, read-out: control of Puccinia recondita f. sp. tritici
[13] = P. teres (B15), read-out: Disease control (%)
[14] = P. recondita prev (B13), read-out: Disease control (%)

| Structure (SMILES) | melting point | pest or weed control at 200 ppm (Plasmopara viticola) | pest or weed control at 200 ppm (Pyrenophora teres; [11]) | pest or weed control at 200 ppm [2, 12] | inhibition of growth at 20 ppm [3] | inhibition of growth at 20 ppm [5] | inhibition of growth at 20 ppm [6] | pest or weed control at 200 ppm [8] | pest or weed control at 200 ppm (Pyrenophora teres; [13]) | pest or weed control at 60 ppm [2, 14] | inhibition of growth at 6 ppm [3] | further results |
| --- | --- | --- | --- | --- | --- | --- | --- | --- | --- | --- | --- | --- |
| CC#Cc1ccn(-c2ccc(C)c(O/C(=C\OC)C(=O)OC)c2)n1 [Compound E-2, methyl (Z)-3-methoxy-2-[2-methyl-5-(3-prop-1-ynylpyrazol-1-yl)phenoxy]prop-2-enoate] | 175 to 179 °C | ≥ 80% | ≥ 80% | ≥ 80% | ≥ 80% | ≥ 80% | ≥ 80% | – | – | – | – | pest or weed control at 200 ppm [1]: ≥ 80%; pest or weed control at 200 ppm (Phakopsora pachyrhizi): ≥ 50%; pest or weed control at 200 ppm [4]: ≥ 80% |
| CO/C=C(\Oc1cc(-n2cc(Cl)c(OC(C)C)n2)ccc1C)C(=O)OC [Compound E-12, methyl (Z)-2-[5-(4-chloro-3-isopropoxy-pyrazol-1-yl)-2-methyl-phenoxy]-3-methoxy-prop-2-enoate] | 104 to 107 °C | ≥ 80% | ≥ 80% | ≥ 80% | ≥ 80% | ≥ 80% | ≥ 80% | – | – | – | – | inhibition of growth at 20 ppm [7]: ≥ 80%; pest or weed control at 200 ppm [4]: ≥ 80%; pest or weed control at 200 ppm (Phytophthora infestans): ≥ 80% |
| CO/C=C(\Oc1cc(-n2ccc(C(C)C)n2)c(C)cc1C)C(=O)OC [Compound E-25, methyl (Z)-2-[5-(3-isopropylpyrazol-1-yl)-2,4-dimethyl-phenoxy]-3-methoxy-prop-2-enoate] | 96 to 98 °C | ≥ 80% | – | ≥ 80% | ≥ 80% | ≥ 80% | ≥ 80% | ≥ 80% | – | – | – | inhibition of growth at 20 ppm [7]: ≥ 80%; pest or weed control at 200 ppm [9]: ≥ 80%; inhibition of growth at 20 ppm [10]: ≥ 80%; pest or weed control at 200 ppm [4]: ≥ 80%; pest or weed control at 200 ppm (Phytophthora infestans): ≥ 80% |
| CO/C=C(\Oc1cc(-n2ccc(OC(F)F)n2)ccc1C)C(=O)OC [Compound E-66, methyl (Z)-2-[5-[3-(difluoromethoxy)pyrazol-1-yl]-2-methyl-phenoxy]-3-methoxy-prop-2-enoate] | 123 to 126 °C | ≥ 80% | – | ≥ 80% | ≥ 80% | ≥ 80% | ≥ 80% | ≥ 80% | – | – | – | inhibition of growth at 20 ppm [7]: ≥ 80%; pest or weed control at 200 ppm [9]: ≥ 80%; pest or weed control at 200 ppm [1]: ≥ 80%; inhibition of growth at 20 ppm [10]: ≥ 80% |
| CO/C=C(\Oc1cc(-n2ccc(I)n2)ccc1C)C(=O)OC [Compound E-78, methyl (Z)-2-[5-(3-iodopyrazol-1-yl)-2-methyl-phenoxy]-3-methoxy-prop-2-enoate] | 156 to 159 °C | ≥ 80% | ≥ 80% | ≥ 80% | ≥ 80% | ≥ 80% | ≥ 80% | ≥ 80% | – | – | – | inhibition of growth at 20 ppm [7]: ≥ 80%; pest or weed control at 200 ppm [1]: ≥ 80%; pest or weed control at 200 ppm [4]: ≥ 80%; pest or weed control at 200 ppm (Phytophthora infestans): ≥ 80% |
| CO/C=C(\Oc1cc(-n2ccc(C#N)n2)ccc1C)C(=O)OC [Compound E-89, methyl (Z)-2-[5-(3-cyanopyrazol-1-yl)-2-methyl-phenoxy]-3-methoxy-prop-2-enoate] | – | ≥ 80% | ≥ 80% | ≥ 80% | ≥ 80% | ≥ 80% | – | – | – | – | – | pest or weed control at 200 ppm (Phakopsora pachyrhizi): ≥ 50% |
| CCOc1ccn(-c2ccc(C)c(O/C(=C\OC)C(=O)OC)c2)n1 [Compound E-94, methyl (Z)-2-[5-(3-ethoxypyrazol-1-yl)-2-methyl-phenoxy]-3-methoxy-prop-2-enoate] | 94 to 96 °C | ≥ 80% | – | ≥ 80% | ≥ 80% | ≥ 80% | ≥ 80% | ≥ 80% | – | – | – | inhibition of growth at 20 ppm [7]: ≥ 80%; pest or weed control at 200 ppm [9]: ≥ 80%; pest or weed control at 200 ppm [1]: ≥ 80%; inhibition of growth at 20 ppm [10]: ≥ 80%; pest or weed control at 200 ppm (Phytophthora infestans): ≥ 80% |
| CO/C=C(\Oc1cc(-n2ccc(C(F)(F)F)n2)ccc1C1CC1)C(=O)OC [Compound E-108, methyl (Z)-2-[2-cyclopropyl-5-[3-(trifluoromethyl)pyrazol-1-yl]phenoxy]-3-methoxy-prop-2-enoate] | 130 to 132 °C | – | ≥ 80% | ≥ 80% | ≥ 80% | ≥ 80% | ≥ 80% | ≥ 80% | – | – | – | – |
| CCc1ccc(-n2ccc(C(F)(F)F)n2)cc1O/C(=C\OC)C(=O)OC [Compound E-109, methyl (Z)-2-[2-ethyl-5-[3-(trifluoromethyl)pyrazol-1-yl]phenoxy]-3-methoxy-prop-2-enoate] | 135 to 137 °C | ≥ 80% | ≥ 80% | ≥ 80% | ≥ 80% | ≥ 80% | ≥ 80% | ≥ 80% | – | – | – | – |
| CO/C=C(\Oc1cccc(-n2ncc(C3CC3)n2)c1)C(=O)OC [drawing 146] | – | – | – | – | – | – | – | – | 0% | 100% | 90% | – |
| CO/C=C(\Oc1cc(-n2ncc(C3CC3)n2)ccc1C)C(=O)OC [drawing 147] | – | – | – | – | – | – | – | – | – | 100% | 100% | pest or weed control at 20 ppm (Pyrenophora teres; P. teres (B15), 20 ppm, read-out: Disease control (%)): 50% |
| CO/C=C(\Oc1cc(-n2ccc(C(F)(F)F)n2)c(F)cc1C)C(=O)OC [drawing 148] | – | – | – | – | – | – | – | – | 90% | 100% | 100% | – |
| CO/C=C(\Oc1cc(-n2ccc(C(C)C)n2)ccc1C)C(=O)OC [drawing 149] | – | – | – | – | – | – | – | – | 0% | 100% | 100% | – |
| CO/C=C(\Oc1cc(-n2ccc(OC(C)C)n2)ccc1C)C(=O)OC [drawing 150] | – | – | – | – | – | – | – | – | 90% | 100% | 100% | – |
| CO/C=C(\Oc1cc(-n2ccc(C(F)(F)F)n2)ccc1C)C(=O)OC [drawing 152] | – | – | – | – | – | – | – | – | 90% | 100% | 100% | – |
| CO/C=C(\Oc1cccc(-n2ccc(C(F)(F)F)n2)c1)C(=O)OC [drawing 153] | – | – | – | – | – | – | – | – | 50% | – | 70% | pest or weed control at 200 ppm [2, 14]: 90% |
| CO/C=C(\Oc1cccc(-n2cccc2)c1)C(=O)OC [drawing 154, reference compound] | – | – | – | – | – | – | – | – | 0% | – | 20% | pest or weed control at 200 ppm [2, 14]: 0% |
